Biological target: T1, human GPR120 (Homo sapiens, UniProt Q5NUL3)
T1 construct: Flag (DYKDDDDK) (N); host or cells: HEK293 cells co-expressing Gqi5
T1 sequence (Q5NUL3 1-361): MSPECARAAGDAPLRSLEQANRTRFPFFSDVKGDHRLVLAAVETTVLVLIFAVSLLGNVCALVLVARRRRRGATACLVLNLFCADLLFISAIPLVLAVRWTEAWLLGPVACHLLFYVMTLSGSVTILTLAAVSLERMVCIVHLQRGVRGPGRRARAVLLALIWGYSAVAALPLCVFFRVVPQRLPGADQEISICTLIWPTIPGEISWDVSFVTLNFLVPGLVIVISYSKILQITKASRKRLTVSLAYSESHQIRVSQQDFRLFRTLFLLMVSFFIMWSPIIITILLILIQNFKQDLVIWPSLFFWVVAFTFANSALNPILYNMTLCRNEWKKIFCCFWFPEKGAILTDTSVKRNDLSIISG
Assay: Intracellular Ca2+ assay (FLIPR Calcium 4, Flexstation) in human GPR120 stable cell line
Type: cell-based
Conditions: for concentration at which activity reached a maximum: typical value, reference compound; for % Activity (Ex. 25 Reference Compound): % activity at 2.5 μM compared to the maximal activity of the compound of Example 25 at 2.5 μM, HEK293 cells co-expressing Gqi5; for EC50: human GPR120 stably expressing cells, eight concentrations from 0.00001 to 20 μM
Description: Human GPR120 stable cell line was purchased from Multispan Inc (26219 Eden Landing Road, Hayward, Calif. 94545). This GPR120 cell line was generated in HEK293 cells co-expressing Gqi5. In this cell line, the Flag epitope tag (DYKDDDDK) was fused to the amino terminus of human GPR120 protein.
The concentration of intracellular Ca^2+ was measured as described below. Human GPR120 cells were plated in 96 well plates (Poly-D-Lysine coated black/clear Plate, Greiner Bio-One) at 70,000 cells per well and cultured overnight in conditions of 37° C. and 5% CO2. A Ca^2+ assay dye stock solution was prepared by adding 10 mL of assay buffer (HBSS/20 mM HEPES, pH 7.4) to FLIPR Calcium 4 Assay Bulk Kit (Molecular Devices). The 10 mL of Ca^2+ assay dye solution was prepared by further diluting 0.5 mL of Ca^2+ assay dye stock solution with 10 mL of assay buffer. The medium of the cells was removed and immediately 100 μL of the Ca^2+ assay dye solution was dispensed into each well followed by incubation at 37° C. and 5% CO2 for 50 minutes to incorporate the Ca^2+ dye into the cells. The cell plate was then placed in the Flexstation (Molecular Devices) for 20 minutes at 37° C. Compounds were dissolved in 100% DMSO and diluted to desired concentrations with assay buffer and placed in the Flexstation simultaneously with the cell plate for 20 minute incubation at 37° C. prior to reading. Fluorescence intensity was measured immediately following compound addition (25 μL/well) on the Flexstation at an excitation wavelength of 485 nm and an emission wavelength of 525 with 515 nm auto cutoff. The resulting increase in fluorescence intensities corresponds to increases in intracellular Ca^2+ levels.
Compounds were dissolved in 100% DMSO to a concentration of 20 mM to provide stock solutions. To determine activity against human GPR120, compounds were added with human GPR120 stably expressing cells (described above), at eight desired concentrations ranging from 0.00001 to 20 μM, in 96 well plates and fluorescence intensities were measured for 90 seconds with 2-second intervals. An EC50 value (concentration of the GPR120 agonist where 50% of the agonist's maximal activity is observed) was calculated using the changes (Max-Min) of fluorescence intensity.
To determine percent activity for a tested compound, the fluorescence intensity value obtained at a particular concentration were compared to the maximal fluorescence intensity value obtained for reference compound GW9508 (4-[[(3-phenoxyphenyl)methyl]amino]benzene propanoic acid; British Journal of Pharmacology 2006 148, 619-628) or the compound of Example 25. When GW9508 was used as the reference compound, the maximal activity of GW9508 at 6.7 μM was designated as 100% activity. When the compound of Example 25 was used as the reference compound, the maximal activity of the compound of Example 25 at 2.5 μM was designated as 100% activity. Typically, the GW9508 activity reached a maximum at a concentration of approximately 6.7 μM and typically the compound of Example 25 reached a maximum activity at approximately 2.5 μM.

Compound	% Activity (Ex. 25 Reference Compound)	EC50	concentration at which activity reached a maximum
4-[[(3-phenoxyphenyl)methyl]amino]benzene propanoic acid [GW9508, reference compound]	–	–	approximately 6.7 μM
CC1(C)Cc2cccc(COc3c(F)cc(CCC(=O)O)cc3F)c2O1 [Example 25, 3-(4-((2,2-dimethyl-2,3-dihydrobenzofuran-7-yl)methoxy)-3,5-difluorophenyl)propanoic acid]	–	–	approximately 2.5 μM
CC(Cc1ccc(OCc2ccc(F)c3c2OC(C)(C)C3)cc1)C(=O)O (stereo not shown) [Example 30, 3-(4-((4-fluoro-2,2-dimethyl-2,3-dihydrobenzofuran-7-yl)methoxy)phenyl)-2-methylpropanoic acid]	–	1 to 10 µM	–
CC(Cc1cc(F)c(OCc2ccc(C(F)(F)F)c3c2OC(C)(C)C3)c(F)c1)C(=O)O (stereo not shown) [Example 32, 3-(4-((2,2-dimethyl-4-(trifluoromethyl)-2,3-dihydrobenzofuran-7-yl)methoxy)-3,5-difluorophenyl)-2-methylpropanoic acid]	–	1 to 10 µM	–
CC(Cc1ccc(OCc2ccc(C(F)(F)F)c3c2OC(C)(C)C3)c(F)c1)C(=O)O (stereo not shown) [Example 33, 3-(4-((2,2-dimethyl-4-(trifluoromethyl)-2,3-dihydrobenzofuran-7-yl)methoxy)-3-fluorophenyl)-2-methylpropanoic acid]	–	1 to 10 µM	–
CC1(C)Cc2cc(Cl)cc(COc3c(F)cc(C4CC4CC(=O)O)cc3F)c2O1 (stereo not shown) [Example 41, 2-(2-(4-((5-chloro-2,2-dimethyl-2,3-dihydrobenzofuran-7-yl)methoxy)-3,5-difluorophenyl)cyclopropyl)acetic acid]	116.46%	–	–
CC(Cc1cc(F)c(OCc2c(F)c(F)cc3c2OC(C)(C)C3)c(F)c1)C(=O)O (stereo not shown) [Example 42, 3-(4-((5,6-difluoro-2,2-dimethyl-2,3-dihydrobenzofuran-7-yl)methoxy)-3,5-difluorophenyl)-2-methylpropanoic acid]	140.94%	–	–
CC(Cc1ccc(COc2cccc3c2OC(C)(C)C3)c(F)c1)C(=O)O (stereo not shown) [Example 44, 3-(4-(((2,2-dimethyl-2,3-dihydrobenzofuran-7-yl)oxy)methyl)-3-fluorophenyl)-2-methylpropanoic acid]	157.14%	–	–
Cc1cc(OCc2cc(Cl)cc3c2OC(C)(C)C3)ccc1CCC(=O)O [Example 51, 3-(4-((5-chloro-2,2-dimethyl-2,3-dihydrobenzofuran-7-yl)methoxy)-2-methylphenyl)propanoic acid]	–	1 to 10 µM	–
CC1(C)Cc2cc(Cl)cc(COc3ccc(CCC(=O)O)c(Cl)c3)c2O1 [Example 52, 3-(2-chloro-4-((5-chloro-2,2-dimethyl-2,3-dihydrobenzofuran-7-yl)methoxy)phenyl)-propanoic acid]	–	1 to 10 µM	–
CC1(C)Cc2cc(Cl)cc(COc3cc(F)c(CCC(=O)O)c(F)c3)c2O1 [Example 54, 3-(4-((5-chloro-2,2-dimethyl-2,3-dihydrobenzofuran-7-yl)methoxy)-2,6-difluorophenyl)propanoic acid]	138.97%	1 to 10 µM	–
COc1cc(OCc2cc(Cl)cc3c2OC(C)(C)C3)ccc1CCC(=O)O [Example 55, 3-(4-((5-chloro-2,2-dimethyl-2,3-dihydrobenzofuran-7-yl)methoxy)-2-methoxyphenyl)propanoic acid]	–	1 to 10 µM	–
COc1cc(CCC(=O)O)c(Br)cc1OCc1cc(F)cc2c1OC(C)(C)C2 [Example 56, 3-(2-bromo-4-((5-fluoro-2,2-dimethyl-2,3-dihydrobenzofuran-7-yl)methoxy)-5-methoxyphenyl)propanoic acid]	108.51%	1 to 10 µM	–

Second part, led by results:

% Activity (Ex. 25 Reference Compound)	EC50	Compound	concentration at which activity reached a maximum
103.75%	–	CC1(C)Cc2cc(F)cc(COc3ccc(C4CC4C(=O)O)cc3)c2O1 (single isomer, unassigned) [Example 131A, 2-(4-((5-fluoro-2,2-dimethyl-2,3-dihydrobenzofuran-7-yl)methoxy)phenyl)cyclopropanecarboxylic acid]	–
105.8%	–	CC1(C)Cc2cc(F)cc(COc3ccc(C4CC4C(=O)O)cc3)c2O1 (single isomer, unassigned) [Example 131B, 2-(4-((5-fluoro-2,2-dimethyl-2,3-dihydrobenzofuran-7-yl)methoxy)phenyl)cyclopropanecarboxylic acid]	–
95.58%	–	CC1(C)Cc2cc(F)cc(COc3c(F)cc(CC4CC4C(=O)O)cc3F)c2O1 (single isomer, unassigned) [Example 184A, 2-(3,5-difluoro-4-((5-fluoro-2,2-dimethyl-2,3-dihydrobenzofuran-7-yl)methoxy)benzyl)cyclopropanecarboxylic acid]	–
130.66%	–	CC1(C)Cc2cc(F)cc(COc3c(F)cc(CC4CC4C(=O)O)cc3F)c2O1 (single isomer, unassigned) [Example 184B, 2-(3,5-difluoro-4-((5-fluoro-2,2-dimethyl-2,3-dihydrobenzofuran-7-yl)methoxy)benzyl)cyclopropanecarboxylic acid]	–
–	1 to 10 µM	CC1(C)Cc2c(C(F)(F)F)ccc(COc3c(F)cc(C4CC4C(=O)O)cc3F)c2O1 (stereo not shown) [Example 31, 2-(4-((2,2-dimethyl-4-(trifluoromethyl)-2,3-dihydrobenzofuran-7-yl)methoxy)-3,5-difluorophenyl)cyclopropanecarboxylic acid]	–
79.58%	–	CC(Cc1ccc(OCc2cc(F)cc3c2OCOC3)cc1)C(=O)O (stereo not shown) [Example 45, 3-(4-((6-fluoro-4H-benzo[d][1,3]dioxin-8-yl)methoxy)phenyl)-2-methylpropanoic acid]	–
113.55%	1 to 10 µM	Cc1cc(OCc2cc(F)cc3c2OC(C)(C)C3)ccc1CCC(=O)O [Example 46, 3-(4-((5-fluoro-2,2-dimethyl-2,3-dihydrobenzofuran-7-yl)methoxy)-2-methylphenyl)propanoic acid]	–
111.18%	1 to 10 µM	CC1(C)Cc2cc(F)cc(COc3ccc(CCC(=O)O)c(Cl)c3)c2O1 [Example 47, 3-(2-chloro-4-((5-fluoro-2,2-dimethyl-2,3-dihydrobenzofuran-7-yl)methoxy)phenyl)propanoic acid]	–
–	1 to 10 µM	CC1(C)Cc2cc(F)cc(COc3ccc(CCC(=O)O)c(F)c3)c2O1 [Example 48, 3-(2-fluoro-4-((5-fluoro-2,2-dimethyl-2,3-dihydrobenzofuran-7-yl)methoxy)phenyl)propanoic acid]	–
–	1 to 10 µM	CC1(C)Cc2cc(F)cc(COc3cc(F)c(CCC(=O)O)c(F)c3)c2O1 [Example 49, 3-(2,6-difluoro-4-((5-fluoro-2,2-dimethyl-2,3-dihydrobenzofuran-7-yl)methoxy)phenyl)propanoic acid]	–
129.78%	1 to 10 µM	COc1cc(OCc2cc(F)cc3c2OC(C)(C)C3)ccc1CCC(=O)O [Example 50, 3-(4-((5-fluoro-2,2-dimethyl-2,3-dihydrobenzofuran-7-yl)methoxy)-2-methoxyphenyl)propanoic acid]	–
143.19%	1 to 10 µM	CC1(C)Cc2cc(Cl)cc(COc3ccc(CCC(=O)O)c(F)c3)c2O1 [Example 53, 3-(4-((5-chloro-2,2-dimethyl-2,3-dihydrobenzofuran-7-yl)methoxy)-2-fluorophenyl)-propanoic acid]	–

From patent publication US8598374B2, “GPR120 receptor agonists and uses thereof” (Metabolex, Inc, priority 2008, dated 2013)
